Data as given in ChEMBL document CHEMBL1201862, “PubChem BioAssay data set” (2004).
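Protocol summary: plate cells (96-well), add compound at 5 concentrations, incubate 48 h, interpolate endpoints linearly. At the GI50, growth is halved.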 Active and inactive are the calls of the source. No stated cut-off is given here; in the data, active = GI50 up to about 1.1 µM and inactive = higher.

Key:
Assay in all cases: NCI tumour cell line growth inhibition, 48 h
HL-60 = tested on: HL-60
UACC-257 = tested on: UACC-257
SF-268 = tested on: SF-268
HOP-62 = tested on: HOP-62
SK-MEL-28 = tested on: SK-MEL-28
NCI-H226 = tested on: NCI-H226
HCT-116 = tested on: HCT-116
A549 = tested on: A549
HT-29 = tested on: HT-29
EKVX = tested on: EKVX
M14 = tested on: M14
ACHN = tested on: ACHN
UO-31 = tested on: UO-31
NCI-H23 = tested on: NCI-H23
NCI-H522 = tested on: NCI-H522
OVCAR-5 = tested on: OVCAR-5
Malme-3M = tested on: Malme-3M
786-0 = tested on: 786-0
DMS-114 = tested on: DMS-114
DMS-273 = tested on: DMS-273

Measured: GI50

CC(NC(=O)C(NC(=O)CNC(=O)OC(C)(C)C)C(C)C)C(=O)Oc1c(Cl)c(Cl)c(Cl)c(Cl)c1Cl (stereo unspecified)
inactive: HL-60 55.2 µM | UACC-257 15.9 µM | SF-268 23 µM | HOP-62 18.4 µM | SK-MEL-28 26.6 µM | NCI-H226 19.8 µM | HCT-116 17.3 µM | A549 22.4 µM | HT-29 26.4 µM | EKVX 27.4 µM | M14 18.8 µM | ACHN 21.8 µM | UO-31 16 µM | NCI-H23 14 µM | NCI-H522 23.9 µM | OVCAR-5 14.7 µM | Malme-3M 21.5 µM

C=CCN1C(=O)/C(=C/c2ccccc2)N=C1SC1OC(COC(=O)c2ccccc2)C(OC(=O)c2ccccc2)C1OC(=O)c1ccccc1 (stereo unspecified)
inactive: HL-60 32.8 µM | UACC-257 25.7 µM | HOP-62 > 100 µM | SK-MEL-28 > 100 µM | NCI-H226 > 100 µM | EKVX > 100 µM | ACHN 30.3 µM | NCI-H23 > 100 µM | NCI-H522 10.4 µM | OVCAR-5 44.3 µM | Malme-3M > 100 µM

COC(=O)C1=C(OC(=O)/C(=C/c2ccc(Cl)cc2)c2ccc(Cl)cc2)C(C(=O)OC)[C@@]2(O)[C@@H](C(=O)OC)[C@H](C)C[C@@H]1[C@@H]2C(=O)OC (stereo partly specified)
inactive: HL-60 > 100 µM | UACC-257 > 83.6 µM | SF-268 35 µM | HOP-62 > 100 µM | SK-MEL-28 > 100 µM | NCI-H226 > 100 µM | 786-0 > 100 µM | HCT-116 31.6 µM | A549 11.5 µM | HT-29 > 61 µM | EKVX 10.6 µM | M14 > 100 µM | ACHN 25.9 µM | UO-31 > 100 µM | NCI-H23 25.2 µM | NCI-H522 3.87 µM | OVCAR-5 > 21 µM | Malme-3M 29 µM

N#CCCN(CCC#N)c1ccc(/C=C2\N=C(c3cc([N+](=O)[O-])ccc3Cl)N(NC(=O)CC(=O)Nc3ccccc3Cl)C2=O)cc1
inactive: DMS-114 > 100 µM | SF-268 > 100 µM | HOP-62 > 100 µM | DMS-273 > 100 µM | SK-MEL-28 > 100 µM | NCI-H226 16.1 µM | HCT-116 > 100 µM | A549 > 100 µM | EKVX > 100 µM | M14 > 100 µM | ACHN > 100 µM | UO-31 > 100 µM | NCI-H23 > 100 µM | NCI-H522 > 100 µM | OVCAR-5 26.5 µM | Malme-3M > 100 µM

COC(=O)/C(=C\c1ccco1)P(=O)(OC)OC
inactive: UACC-257 65.8 µM | SF-268 97.3 µM | HOP-62 25.4 µM | SK-MEL-28 52.8 µM | NCI-H226 58.3 µM | 786-0 47.4 µM | HCT-116 44 µM | A549 85.1 µM | HT-29 25.9 µM | EKVX 43.3 µM | M14 55.7 µM | ACHN 29.4 µM | NCI-H23 30.5 µM | NCI-H522 2.49 µM | OVCAR-5 16.2 µM | Malme-3M 16.4 µM

O=[N+]([O-])c1ccc(CNC2=NNS(=O)(=O)c3ccccc32)cc1
inactive: DMS-114 > 100 µM | HL-60 79.3 µM | UACC-257 > 100 µM | SF-268 > 100 µM | DMS-273 > 100 µM | NCI-H226 > 100 µM | 786-0 > 100 µM | HCT-116 > 100 µM | A549 > 100 µM | HT-29 > 100 µM | EKVX > 100 µM | M14 > 100 µM | ACHN > 100 µM | UO-31 > 100 µM | OVCAR-5 > 100 µM | Malme-3M > 100 µM

C[C@]1(O)CC(=O)c2c(c(-c3ccc4cc5c(c(O)c4c3O)C(=O)C[C@@](C)(O)C5)c3cccc(O)c3c2O)C1
inactive: UACC-257 7.36 µM | SF-268 4.31 µM | HOP-62 3.48 µM | SK-MEL-28 10.4 µM | NCI-H226 3.85 µM | 786-0 5.37 µM | HCT-116 3.48 µM | A549 4.24 µM | HT-29 5.71 µM | EKVX 11.2 µM | M14 5.56 µM | ACHN 4.04 µM | UO-31 4.16 µM | NCI-H23 3.69 µM | NCI-H522 4.88 µM | OVCAR-5 9.46 µM | Malme-3M 6.35 µM

COc1ccc(NC(=O)/C(=C/c2ccc(N(CCC#N)CCC#N)cc2)NC(=O)c2cc([N+](=O)[O-])ccc2Cl)cc1
inactive: SF-268 27.2 µM | HOP-62 33.2 µM | DMS-273 34.4 µM | SK-MEL-28 53.5 µM | NCI-H226 > 100 µM | HCT-116 48.2 µM | A549 15.5 µM | EKVX 52.1 µM | M14 > 100 µM | ACHN 10.1 µM | UO-31 9.91 µM | NCI-H23 > 100 µM | NCI-H522 4.27 µM | OVCAR-5 > 100 µM | Malme-3M > 100 µM
